Results: US20050124562A1, “Bis-quinazoline compounds for the treatment of bacterial infections” (priority 2003, published 2005)
≈ marks a conversion by molar mass, not a printed value.

Columns and labels:
[1] = test system: clinically important bacterial pathogens; assay: MIC tests in the presence of human serum; type: cell-based; conditions: 50% human serum
Description: (§1) Representative bis-quinazolines were tested for antibacterial activity using the […] microdilution method to determine their minimum inhibitory concentrations (MICs). All compounds were tested using standard methods in accordance with NCCLS guidelines (National Committee for Clinical Laboratory Standards. 2003. Methods for dilution antimicrobial susceptibility testing for bacteria that grow aerobically. Approved Standard M-7 A-6, NCCLS, Wayne, Pa.). The bacterial strains used in the susceptibility tests were obtained from the American Type Culture Collection (ATCC) and included resistant phenotypes such as oxacillin-resistant S. aureus (ORSA) and vancomycin-resistant enterococci (VRE). The minimum bactericidal concentrations (MBCs) were determined for selected organisms. The effect of protein binding on the antibacterial activity of representative bis-quinazolines were determined by conducting MIC tests in the presence of human serum.

S. aureus ATCC 29213 = assay: S. aureus murine intra-abdominal sepsis model; type: in vivo, mice; conditions: 25 mg/kg IP one hour post infection, MLD of S. aureus IP
Description: Typically, the model involves inoculating the intra-peritoneal cavity of the mouse with the minimum lethal dose (MLD) of the test organism. The test antimicrobial agent can be administered by any route (e.g. intravenously, sub-cutaneously, oral, intraperitoneal). Early stage compounds are evaluated following intraperitoneal administration since this is considered to be relevant to systemic treatment since most of the compound will be absorbed into the bloodstream. The compound is then monitored for its ability to protect the mouse from a lethal infection with the test organism in a concentration-dependent manner. At the same time the model provides early data on the potential toxicity of a new compound.
The S. aureus murine intra-abdominal sepsis model was used to evaluate the in vivo efficacy of 2-(6-Methoxy-4-methyl-quinazolin-2-ylamino)-3H-quinazolin-4-ol. […] The animals were then monitored at frequent intervals and the numbers of mice surviving in the different treatment groups was scored and recorded in an attempt to determine the protective dose (PD50). Levofloxacin was evaluated as a positive control (0.875, 1.75, 3.125, 6.25, 12.5 and 25 mg/kg). Vehicle only and saline controls were also evaluated.

[2] = test system: S. aureus, E. faecalis, S. pyogenes and S. pneumoniae; assay: Broth microdilution MIC (NCCLS), gram-positive strains; type: cell-based
Procedure, shortened: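 MICs by broth microdilution per NCCLS M-7 A-6 against ATCC strains, including ORSA and VRE; MBCs determined for selected organisms. Serum effect assessed by repeating MIC tests with human serum present.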

[3] = test system: clinically important gram-positive pathogens; assay: Whole cell antibacterial (MIC) and bactericidal (MBC) activity; type: cell-based
Description: as §1

[4] = Single dose toxicity study in the mouse; type: in vivo; conditions: single dose IP, 2.5 to 25 mg/kg, female Swiss-Webster mice, monitored one week
Description: A single dose toxicity study was conducted in the mouse prior to evaluating the compound for in vivo efficacy. 2-(6-Methoxy-4-methyl-quinazolin-2-ylamino)-3H-quinazolin-4-ol was prepared in a vehicle consisting of 10% DMSO, 10% ethanol and 80% saline that contained 3% β-cyclodextrin. The compound was administered as a single dose to the peritoneal cavity of female Swiss-Webster mice at the six concentrations (2.5, 5, 10, 15, 20 and 25 mg/kg) proposed for evaluation in the efficacy study. The mice were monitored for toxicity for one week following compound administration.

[5] = test system: reconstituted bacterial DNA polymerase holoenzymes from E. coli, Y. pestis and S. pyogenes; type: biochemical

In the case of `COc1ccc2nc(Nc3nc(O)c4ccccc4n3)nc(C)c2c1` [Example 9, 2-(6-Methoxy-4-methyl-quinazolin-2-ylamino)-quinazolin-4-ol], the “antibacterial activity in the presence of human serum” value [1] is reported as “activity is evident”, the “mice protected from lethal S. aureus infection” value (S. aureus ATCC 29213) is reported as 50% and the MIC [2] is reported as 0.06 to 16 µg/mL (≈ 0.18 to 48 µM). For the same molecule, the “whole cell antibacterial and bactericidal activity” value [3] was “potent whole cell antibacterial and bactericidal activity”, the “tolerability after single dose” value ([4]; listed as 2-(6-Methoxy-4-methyl-quinazolin-2-ylamino)-3H-quinazolin-4-ol) was “All mice tolerated the compound” and the “tolerability after single dose” value ([4]; listed as 2-(6-Methoxy-4-methyl-quinazolin-2-ylamino)-3H-quinazolin-4-one) was “well tolerated”. For the same molecule, the “biochemical activity against reconstituted DNA polymerase holoenzymes” value [5] was “demonstrated biochemical activity”.
